Earlier results in US7625708B1 (priority 2005, dated 2009).

Tests used:
[1] = rabbit, in vivo
[2] = test system: NAD(P)H: Quinone Oxidoreductase I (NQO I)
[3] = test system: Cytochrome P450 1A1 (CYP 1A1)
[4] = test system: Glutathion-S-Transferase (GST)
[5] = test system: Aldehyde Dehydrogenase (ALDH)
[6] = test system: GDNF mRNA; conditions: rat, in vivo

CNC(=O)ON=C(C)SC [methomyl]
detection in the hair shaft [1]: could be detected

Cc1ccc2cc3c(ccc4ccccc43)c3c2c1CC3 [methylcholanthrene]
induction of NQO I [2]: showed induction of NQO I (cell culture) | CYP1A1 activity [3]: showed increase CYP1A1 activity (cell | induction of GST [4]: showed induction of GST (cell culture) | induction of ALDH [5]: showed induction of ALDH (cell culture)

c1ccc(C2(N3CCCCC3)CCCCC2)cc1 [phencyclidine]
GDNF mRNA expression [6]: GDNF mRNA expression increased in rats

CCC1(c2ccccc2)C(=O)NC(=O)NC1=O [phenobarbital]
CYP1A1 activity [3]: showed increase CYP1A1 activity (cell

O=c1cc(-c2ccccc2)oc2ccc3ccccc3c12 [β-naphthaoflavone]
CYP1A1 activity [3]: showed increase CYP1A1 activity (cell
